Measured values from ChEMBL document CHEMBL2062514 (J Med Chem, 2012).

Experiments:
Adenosine receptor A2a [1] = molecular target: T1, Adenosine receptor A2a (Homo sapiens, UniProt P29274); test: Displacement of [3H]CGS21680 from human recombinant adenosine A2A receptor expressed in HEK293 cells at 10 uM after 60 mins by liquid scintillation counting; assay type: cell-based
[2] = molecular target: T2, Adenosine receptor A1 (Mus musculus) (UniProt Q60612); test: Displacement of from mouse adenosine A1 receptor expressed in HEK293 cells at 10 uM after 60 mins by liquid scintillation counting; design: reference not given here
T2 sequence (whole entry): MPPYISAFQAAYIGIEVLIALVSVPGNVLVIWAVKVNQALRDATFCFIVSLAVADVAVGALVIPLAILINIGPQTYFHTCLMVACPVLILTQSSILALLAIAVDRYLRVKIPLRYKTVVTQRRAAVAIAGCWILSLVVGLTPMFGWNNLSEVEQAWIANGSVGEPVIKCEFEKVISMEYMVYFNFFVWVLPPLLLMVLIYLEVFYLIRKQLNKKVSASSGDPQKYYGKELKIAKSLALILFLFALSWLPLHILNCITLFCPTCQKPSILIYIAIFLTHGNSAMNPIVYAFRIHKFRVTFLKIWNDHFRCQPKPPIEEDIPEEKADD

[3] = molecular target: T3, Adenosine receptor A2b (Homo sapiens) (UniProt P29275); test: Agonist activity at human adenosine A2B receptor by cAMP accumulation assay relative to NECA; assay type: functional
T3 sequence (whole entry): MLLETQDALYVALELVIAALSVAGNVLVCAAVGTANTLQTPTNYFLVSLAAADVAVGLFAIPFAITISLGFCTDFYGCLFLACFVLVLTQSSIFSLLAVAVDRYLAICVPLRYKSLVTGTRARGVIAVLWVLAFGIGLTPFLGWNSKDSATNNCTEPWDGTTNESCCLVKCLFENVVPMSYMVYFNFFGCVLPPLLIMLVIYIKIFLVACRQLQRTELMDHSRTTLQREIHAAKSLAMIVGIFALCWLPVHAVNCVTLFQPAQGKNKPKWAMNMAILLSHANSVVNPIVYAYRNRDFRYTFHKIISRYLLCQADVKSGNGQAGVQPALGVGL

[4] = molecular target: Adenosine receptor A2a (Mus musculus) (UniProt Q60613); test: Displacement of [3H]CGS21680 from mouse adenosine A2A receptor expressed in HEK293 cells at 10 uM after 60 mins by liquid scintillation counting
Sequence of Adenosine receptor A2a (Mus musculus) (Q60613 whole entry): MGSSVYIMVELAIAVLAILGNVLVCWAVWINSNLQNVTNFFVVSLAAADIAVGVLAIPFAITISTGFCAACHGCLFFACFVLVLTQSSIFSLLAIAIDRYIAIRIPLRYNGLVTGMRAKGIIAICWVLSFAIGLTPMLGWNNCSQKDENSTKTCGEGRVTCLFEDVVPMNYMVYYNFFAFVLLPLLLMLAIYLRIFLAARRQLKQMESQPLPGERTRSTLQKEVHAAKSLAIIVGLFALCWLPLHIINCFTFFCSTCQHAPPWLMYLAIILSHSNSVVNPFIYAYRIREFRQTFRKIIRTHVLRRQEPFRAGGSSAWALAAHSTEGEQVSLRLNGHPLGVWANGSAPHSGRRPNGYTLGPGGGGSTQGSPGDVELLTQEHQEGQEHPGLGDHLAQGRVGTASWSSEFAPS

[5] = molecular target: T4, Adenosine receptor A1 (Homo sapiens) (UniProt P30542); test: Displacement of [3H]R-PIA from human recombinant adenosine A1 receptor expressed in CHO cells at 10 uM after 60 mins by liquid scintillation counting; assay type: cell-based
T4 sequence (whole entry): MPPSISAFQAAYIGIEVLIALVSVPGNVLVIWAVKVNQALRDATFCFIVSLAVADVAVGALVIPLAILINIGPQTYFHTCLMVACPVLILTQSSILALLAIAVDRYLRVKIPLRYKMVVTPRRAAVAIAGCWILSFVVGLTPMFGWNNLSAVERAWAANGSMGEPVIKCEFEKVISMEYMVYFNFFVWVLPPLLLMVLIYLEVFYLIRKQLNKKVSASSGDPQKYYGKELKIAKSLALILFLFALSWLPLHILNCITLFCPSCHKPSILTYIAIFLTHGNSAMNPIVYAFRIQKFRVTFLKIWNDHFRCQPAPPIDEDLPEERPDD

[6] = molecular target: T5, Adenosine receptor A3 (Homo sapiens) (UniProt P0DMS8); test: Agonist activity at human recombinant adenosine A3 receptor expressed in CHO cells assessed as inhibition of forskolin-stimulated cAMP production at 10 uM incubated for 30 mins prior to forskolin-stimulation measured after 15 mins by enzyme immunoassay relative to NECA; assay type: functional, cell-based
T5 sequence (whole entry): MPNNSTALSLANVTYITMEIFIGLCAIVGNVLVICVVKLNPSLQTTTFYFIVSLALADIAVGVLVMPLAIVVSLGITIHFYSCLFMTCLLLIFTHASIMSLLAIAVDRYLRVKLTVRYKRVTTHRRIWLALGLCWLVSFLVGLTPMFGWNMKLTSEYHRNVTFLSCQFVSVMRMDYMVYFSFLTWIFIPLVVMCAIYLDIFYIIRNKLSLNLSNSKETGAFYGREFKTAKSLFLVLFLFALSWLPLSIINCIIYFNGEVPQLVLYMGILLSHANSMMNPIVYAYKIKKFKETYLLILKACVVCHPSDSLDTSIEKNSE

[7] = Selectivity ratio of Ki for mouse adenosine A3 receptor to Ki for human recombinant adenosine A3 receptor
Adenosine receptor A3 = molecular target: T6, Adenosine receptor A3 (Mus musculus, UniProt Q61618); test: Displacement of [125I]I-AB-MECA from mouse adenosine A3 receptor expressed in HEK293 cells after 60 mins by liquid scintillation counting
T6 sequence (Q61618 whole entry): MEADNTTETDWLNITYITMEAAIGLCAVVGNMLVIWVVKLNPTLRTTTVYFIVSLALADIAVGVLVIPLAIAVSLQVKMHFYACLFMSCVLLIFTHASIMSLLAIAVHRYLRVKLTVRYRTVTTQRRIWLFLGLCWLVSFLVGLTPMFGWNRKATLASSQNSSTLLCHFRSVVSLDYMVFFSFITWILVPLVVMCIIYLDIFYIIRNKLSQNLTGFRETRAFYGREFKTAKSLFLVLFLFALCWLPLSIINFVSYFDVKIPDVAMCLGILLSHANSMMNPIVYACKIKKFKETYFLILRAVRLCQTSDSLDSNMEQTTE

Adenosine receptor A2a [8] = molecular target: T1, Adenosine receptor A2a; test: Displacement of [3H]CGS21680 from human recombinant adenosine A2A receptor expressed in HEK293 cells after 60 mins by liquid scintillation counting; assay type: cell-based

T1 sequence (P29274 whole entry): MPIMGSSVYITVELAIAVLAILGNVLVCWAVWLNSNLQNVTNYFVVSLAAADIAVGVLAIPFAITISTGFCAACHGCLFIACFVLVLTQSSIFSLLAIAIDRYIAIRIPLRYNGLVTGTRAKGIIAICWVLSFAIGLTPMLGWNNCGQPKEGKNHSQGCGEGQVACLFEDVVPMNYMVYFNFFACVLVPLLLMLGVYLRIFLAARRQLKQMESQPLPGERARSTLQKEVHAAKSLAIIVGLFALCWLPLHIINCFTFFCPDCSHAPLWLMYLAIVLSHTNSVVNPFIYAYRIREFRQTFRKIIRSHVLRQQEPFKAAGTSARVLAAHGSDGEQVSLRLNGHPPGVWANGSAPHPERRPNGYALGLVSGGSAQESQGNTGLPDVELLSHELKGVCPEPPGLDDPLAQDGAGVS

Row | SMILES | inhibition (Adenosine receptor A2a [1]) [%] | inhibition [2] [%] | Efficacy [3] [%] | inhibition [4] [%] | inhibition [5] [%] | Efficacy [6] [%] | Ratio Ki [7] | Ki (Adenosine receptor A3) [nM] | Ki (Adenosine receptor A2a [8]) [µM]
1 | CNC(=O)[C@@]12C[C@@H]1[C@@H](n1cnc3c(NCc4cccc(Cl)c4)nc(C#Cc4ccc(F)c(F)c4)nc31)[C@H](O)[C@@H]2O (single isomer, unassigned) | 41 | 14 | 20 | 27 | 6 | – | – | – | –
2 | CNC(=O)[C@@]12C[C@@H]1[C@@H](n1cnc3c(NC)nc(C#Cc4ccccc4F)nc31)[C@H](O)[C@@H]2O | 17 | – | – | – | 21 | 97.7 | – | – | –
3 | CNC(=O)[C@@]12C[C@@H]1[C@@H](n1cnc3c(NC)nc(C#Cc4ccccc4Cl)nc31)[C@H](O)[C@@H]2O | 30 | 55 | – | 2 | 27 | 84.2 | 70 | 37.2 | –
4 | CNC(=O)[C@@]12C[C@@H]1[C@@H](n1cnc3c(NC)nc(C#Cc4cccc(F)c4)nc31)[C@H](O)[C@@H]2O | 10 | – | – | – | 12 | 95.8 | – | – | –
5 | CNC(=O)[C@@]12C[C@@H]1[C@@H](n1cnc3c(NCc4cccc(Cl)c4)nc(C#Cc4cccc(Cl)c4)nc31)[C@H](O)[C@@H]2O | – | 35 | 20 | 55 | 4 | 91.5 | – | 2.39 | 1.74
6 | CNC(=O)[C@@]12C[C@@H]1[C@@H](n1cnc3c(NCc4cccc(Cl)c4)nc(C#Cc4ccccc4Cl)nc31)[C@H](O)[C@@H]2O | 52 | 51 | – | 19 | 19 | 103 | – | 2.64 | –
7 | CNC(=O)[C@@]12C[C@@H]1[C@@H](n1cnc3c(NC)nc(C#Cc4ccc(C(C)(C)C)cc4)nc31)[C@H](O)[C@@H]2O | 7 | – | – | – | 23 | 78.4 | – | – | –
8 | CNC(=O)[C@@]12C[C@@H]1[C@@H](n1cnc3c(NC)nc(C#Cc4ccccc4)nc31)[C@H](O)[C@@H]2O | 14 | – | – | – | 13 | – | – | – | –
9 | CNC(=O)[C@@]12C[C@@H]1[C@@H](n1cnc3c(NC)nc(C#Cc4cc(F)cc(F)c4)nc31)[C@H](O)[C@@H]2O | 47 | – | – | – | 8 | 99.6 | – | – | –
10 | CCc1ccc(C#Cc2nc(NC)c3ncn([C@H]4[C@H](O)[C@H](O)[C@]5(C(=O)NC)C[C@H]45)c3n2)cc1 | 38 | – | – | – | 13 | 110 | – | – | –
11 | CNC(=O)[C@@]12C[C@@H]1[C@@H](n1cnc3c(NCc4cccc(Cl)c4)nc(C#Cc4ccc(-c5ccccc5)cc4)nc31)[C@H](O)[C@@H]2O | 0 | 41 | – | 6 | 2 | 89 | 3 | 10.8 | –
12 | CNC(=O)[C@@]12C[C@@H]1[C@@H](n1cnc3c(NC)nc(C#Cc4ccc(-c5ccccc5)cc4)nc31)[C@H](O)[C@@H]2O | 29 | – | – | – | 21 | 110 | – | – | –
13 | CNC(=O)[C@@]12C[C@@H]1[C@@H](n1cnc3c(NCc4cccc(Cl)c4)nc(C#Cc4ccc5ccc6cccc7ccc4c5c67)nc31)[C@H](O)[C@@H]2O | – | 8 | 20 | 64 | 8 | 77.8 | – | 47.6 | 3.11
14 | CNC(=O)[C@@]12C[C@@H]1[C@@H](n1cnc3c(NCc4cccc(Cl)c4)nc(C#Cc4ccccc4)nc31)[C@H](O)[C@@H]2O | 27 | 50 | – | 2 | 20 | 101 | – | – | –
15 | CNC(=O)[C@@]12C[C@@H]1[C@@H](n1cnc3c(NC)nc(C#Cc4cccc(Cl)c4)nc31)[C@H](O)[C@@H]2O | – | – | 20 | – | 10 | 90.9 | – | – | –
16 | CNC(=O)[C@@]12C[C@@H]1[C@@H](n1cnc3c(NCc4cccc(Cl)c4)nc(C#Cc4cccc(C(=O)O)c4)nc31)[C@H](O)[C@@H]2O | 38 | 18 | – | 22 | 6 | 86.7 | – | 3.66 | –
17 | CNC(=O)[C@@]12C[C@@H]1[C@@H](n1cnc3c(NC)nc(C#Cc4cc5ccccc5c5ccccc45)nc31)[C@H](O)[C@@H]2O | 52 | – | – | – | 15 | 108 | – | – | –
18 | CNC(=O)[C@@]12C[C@@H]1[C@@H](n1cnc3c(NC)nc(C#Cc4cccc5ccccc45)nc31)[C@H](O)[C@@H]2O | 34 | – | – | – | 25 | 94.6 | – | – | –
19 | CNC(=O)[C@@]12C[C@@H]1[C@@H](n1cnc3c(NC)nc(C#Cc4cccc(N)c4)nc31)[C@H](O)[C@@H]2O | 19 | – | – | – | 10 | 109 | – | – | –
20 | CNC(=O)[C@@]12C[C@@H]1[C@@H](n1cnc3c(NCc4cccc(I)c4)ncnc31)[C@H](O)[C@@H]2O | – | – | – | – | – | 100 | – | – | –
21 | CNC(=O)[C@@]12C[C@@H]1[C@@H](n1cnc3c(NC)nc(C#Cc4ccc(C(C)=O)cc4)nc31)[C@H](O)[C@@H]2O | – | – | 20 | – | 15 | 87.4 | – | – | 5.3
22 | CNC(=O)[C@@]12C[C@@H]1[C@@H](n1cnc3c(NC)nc(C#Cc4ccc(F)cc4)nc31)[C@H](O)[C@@H]2O | 19 | 29 | – | 0 | 21 | 80.3 | 70 | 37.7 | –
23 | CNC(=O)[C@@]12C[C@@H]1[C@@H](n1cnc3c(NC)nc(C#Cc4ccc(F)c(F)c4)nc31)[C@H](O)[C@@H]2O | 6 | – | – | – | 6 | 108 | – | – | –
24 | CNC(=O)[C@@]12C[C@@H]1[C@@H](n1cnc3c(NC)nc(C#Cc4ccc(Br)cc4)nc31)[C@H](O)[C@@H]2O | 26 | – | – | – | 13 | 97.5 | – | – | –
25 | CNC(=O)[C@@]12C[C@@H]1[C@@H](n1cnc3c(NCc4cccc(Cl)c4)nc(C#Cc4ccc(F)cc4)nc31)[C@H](O)[C@@H]2O | 42 | 65 | 20 | 7 | 20 | 102 | – | 2.38 | –
26 | CNC(=O)[C@@]12C[C@@H]1[C@@H](n1cnc3c(NC)nc(C#Cc4ccc(Cl)cc4)nc31)[C@H](O)[C@@H]2O | 30 | – | – | – | 14 | 97.4 | – | – | –
27 | CNC(=O)[C@@]12C[C@@H]1[C@@H](n1cnc3c(NC)nc(C#Cc4ccccn4)nc31)[C@H](O)[C@@H]2O | 13 | – | – | – | 11 | – | – | – | –
